Assay [1] concerns the target T1, intracellular tyrosinase in B16F10 cells (Mus musculus, UniProt P11344).
T1 construct: endogenous in cells; host or cells: B16F10
T1 sequence (P11344 19-533): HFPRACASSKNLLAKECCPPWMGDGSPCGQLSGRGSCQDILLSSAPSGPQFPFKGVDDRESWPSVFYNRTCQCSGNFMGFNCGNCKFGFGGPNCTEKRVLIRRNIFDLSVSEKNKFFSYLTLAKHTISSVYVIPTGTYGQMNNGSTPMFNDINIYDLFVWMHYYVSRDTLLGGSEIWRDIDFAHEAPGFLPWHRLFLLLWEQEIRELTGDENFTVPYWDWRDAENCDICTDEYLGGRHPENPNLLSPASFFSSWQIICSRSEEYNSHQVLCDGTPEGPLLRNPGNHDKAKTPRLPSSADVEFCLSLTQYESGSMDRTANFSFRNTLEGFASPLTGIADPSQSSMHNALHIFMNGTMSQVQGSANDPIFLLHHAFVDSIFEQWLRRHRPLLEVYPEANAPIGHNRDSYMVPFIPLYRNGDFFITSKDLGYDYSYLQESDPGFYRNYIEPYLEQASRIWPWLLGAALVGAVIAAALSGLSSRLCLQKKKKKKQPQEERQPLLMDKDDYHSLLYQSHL
Put plainly: Recovery study of intracellular tyrosinase activity in B16F10 cells. Format: cell-based. To be noted: for tyrosinase activity after removal of compound: 2 day recovery post 2 day exposure. As for the experimental part:
In order to establish reversibility of tyrosinase inhibition by the CMCs, we conducted a “recovery” study over a 2 day interval using the highest concentrations of the compounds which produced maximum tyrosinase activity inhibition without toxicity. B16F10 were plated in six-well plates at 3.5×10^4 cells/well and compounds were added (PC-10 μM, CMC2.14-10 μM, CMC2.5-20 μM, CMC2.23-25 μM and CMC2.24 at 20 μM) next day. Tyrosinase activity in one set of cultures after detachment and lysis as described herein was estimated after 2 day exposure while another set of cultures were continued with fresh media without the compounds to study reversibility of tyrosinase activity inhibition for another 2 days. Results are expressed as % tyrosinase activity for both 2 day exposure and 2 day recovery post 2 day exposure.

The subject of assay [2] is HEM-DP cells. As to the kind of experiment: Melanin content quantification in human epidermal melanocytes. Format: cell-based. Conditions: 48 hours. As for the experimental part: Primary cultures of human epidermal melanocytes from a darkly pigmented donor were seeded at 2.2×10^5 cells/well in 1.5 ml media in 12-well plates and incubated for 48 hours. The test compounds were added to cultures and controls were treated with 0.16% DMSO, and further incubated for another 48 hours. For evaluation of melanin content, cells in the wells were trypsinized and cell pellets were washed in PBS. After aspiration, 250 μL of 1N NaOH was added and heated to 70° C. to solubilize melanin. The aliquots were then transferred to a 96-well plate and absorbance was read at 475 nm using microplate reader. A portion of the lysate was used to evaluate total protein content using […] bincinchonic acid (BCA) assay (Pierce BCA kit, Thermo Scientific). The absorbance of melanin was normalized to the total protein content for each lysate and reported as % of control.

The target of assay [3] is T2, cellular tyrosinase in HEM-DP cells (Homo sapiens, UniProt P14679).
T2 construct: endogenous in cells; host or cells: HEM-DP (primary human epidermal melanocytes, darkly pigmented donor)
T2 sequence (P14679 19-529): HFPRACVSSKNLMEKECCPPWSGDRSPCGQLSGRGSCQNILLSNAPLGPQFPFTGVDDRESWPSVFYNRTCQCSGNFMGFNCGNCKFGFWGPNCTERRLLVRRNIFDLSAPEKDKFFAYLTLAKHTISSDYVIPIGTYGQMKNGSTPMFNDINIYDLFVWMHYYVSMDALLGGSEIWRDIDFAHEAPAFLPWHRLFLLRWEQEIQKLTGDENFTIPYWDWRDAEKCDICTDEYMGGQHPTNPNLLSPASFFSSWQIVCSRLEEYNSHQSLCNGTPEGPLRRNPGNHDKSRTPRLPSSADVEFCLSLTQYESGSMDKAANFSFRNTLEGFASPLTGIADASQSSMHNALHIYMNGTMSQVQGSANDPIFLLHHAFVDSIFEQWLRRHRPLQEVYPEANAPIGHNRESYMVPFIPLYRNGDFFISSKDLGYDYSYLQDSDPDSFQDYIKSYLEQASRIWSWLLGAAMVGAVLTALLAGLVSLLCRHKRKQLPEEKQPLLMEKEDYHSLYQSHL
Put plainly: Intracellular tyrosinase activity in human melanocytes. To be noted: 48 hours. Format: cell-based. How it is done: We quantitated the cellular tyrosinase activity of human melanocytes based on established methods. Briefly, human epidermal melanocytes from a darkly pigmented donor (HEM-DP) were cultured in 12-well tissue culture plates at density of 1.5×10^5 cells/well. After 48 hrs. media was changed and test compounds were added, and further incubated for 48 hrs. At the end of treatments, cells were trypsinized and cell pellets were washed in PBS and lysed with lysis buffer under ice for 30 minutes and then centrifuged to remove cellular debris. 50 μl of lysates were then aliquoted in 96-well microplate and 150 μl of freshly prepared 3 mM L-DOPA was added. The absorbance was then measured kinetically at 475 nm every 30 seconds for 30 minutes at 30° C. using microplate reader (Versamax®). The % inhibition of tyrosinase activity was calculated by determining melanin formation rates from the linear range of the slopes of melanin formation over time for the different samples and calculating % inhibition from the measured velocities of melanin formation.

In assay [4] the target is T3, intracellular tyrosinase in HEM-DP cells (Homo sapiens, UniProt P14679).
T3 construct: endogenous in cells; host or cells: HEM-DP (primary human epidermal melanocytes, darkly pigmented donor)
T3 sequence (P14679 19-529): T2 sequence (P14679 19-529)
As to the kind of experiment: Recovery study of intracellular tyrosinase activity in human melanocytes. Format: cell-based. How it is done:
In order to study if the melanocytes could recover from inhibited tyrosinase activity after exposure to the CMCs, we employed a model for reversibility of inhibition of tyrosinase activity inhibition. This can establish safety of the compounds since irreversible inhibition of tyrosinase activity could damage melanocyte synthetic machinery with potential loss of the protective function of melanin. […] Briefly, HEM-DP were plated in 6-well plates at 2.3×10^5 cells/well and grown for 3 days and then CMCs were added. Tyrosinase activity was estimated after 2 day exposure in cellular lysates and another set of cultures were continued with fresh media without the compounds for further 5 days (with media change at day 3), in order to study reversibility of melanin inhibition.

In assay [5] the test system is B16F10 cells. As to the kind of experiment: Melanin content quantification in B16F10 cells. Format: cell-based, mouse. Conditions: for inhibition of melanin content / effect on melanin content (words): 48 hours; for effect on melanin content (words): B16F10, tested concentrations; for pIC50: B16F10 cells exposed for 48 hours, non-linear curve fitting, read-out: IC50-Melanin Inhibition. As for the experimental part:
B16F10 cells were seeded at 1×10^5 cells/well in 1.5 ml media in 12-well plates and incubated for 24 hours. […] For quantification of melanin content, cells were trypsinized and cell pellets were washed in PBS. Cell pellets were also visually observed for lightening of the intracellular pigment. After aspiration, 250 μL of 1N NaOH was added and heated to 70° C. to solubilize melanin. The aliquots were then transferred to a 96-well plate and absorbance was read at 475 nm using a microplate reader. A portion of the lysate was used to evaluate total protein content using BCA assay. The melanin absorbance was normalized by total protein content and expressed as % of control.

pIC50: −log10 of the molar value.

This is an account of results in US10300000B2, “Inhibition of melanogenesis by chemically modified curcumins” (The Research Foundation for The State University of New York, priority 2016, dated 2019).

As usually defined, the pIC50 is −log10 of the IC50, conventionally taken in molar units.

Take `COC(=O)C(C(=O)C=Cc1ccc(O)c(OC)c1)C(=O)C=Cc1ccc(O)c(OC)c1` (stereo not shown) [CMC2.5, 4-methoxycarbonyl curcumin]: the “tyrosinase activity after removal of compound” value in assay [1] (B16F10, 20 μM) was “completely recovered”. Besides, in assay [2] (20 μM), the “reduction in melanin content” value is on record as approximately 20%. For the same compound, the “inhibition of cellular tyrosinase activity” value in assay [3] (20 μM) is on record as 16%. For the same compound, the “reduction of tyrosinase activity at the exposure time” value in assay [4] (20 μM, 2 day exposure) was 12%.
In the case of `COC(=O)C(C(=O)/C=C/c1ccc(O)cc1)C(=O)/C=C/c1ccc(O)cc1` [CMC2.14], the “inhibition of melanin content” value in assay [5] (B16F10, 10 μM) was 32.21%. For the same compound, in assay [5], the “effect on melanin content (words)” value is on record as “moderate inhibition” and the pIC50 was 4.82. The “loss of tyrosinase activity” value in assay [1] (B16F10, 10 μM, 2 day exposure) was “up to 75%”. Further, the “tyrosinase activity after removal of compound” value in assay [1] (B16F10, 10 μM) was 100%.
In the case of `COc1cc(/C=C/C(=O)C(C(=O)/C=C/c2ccc(O)c(OC)c2)C(=O)Nc2ccccc2)ccc1O` [CMC2.23], in assay [5] (B16F10, 25 μM), the “inhibition of melanin content” value is 46.4%. For the same compound, the “effect on melanin content (words)” value in assay [5] is “most potent inhibition”; in assay [5] (listed as 2.23) it was “moderate inhibition”. Besides, the pIC50 in assay [5] is 4.62. Also, the “reduction in melanin content” value in assay [2] (10 μM) and in assay [2] (20 μM) was 20% each time. In addition, the results for the “inhibition of cellular tyrosinase activity” value in assay [3] (5 μM), in assay [3] (10 μM) and in assay [3] (20 μM) were 25%, 35% and 49%, respectively. The “recovery of tyrosinase activity” value in assay [4] (5 days after removal, CMC2.24 10 μM, CMC2.23 and CMC2.5 20 μM) was “partially recovered”.
